Test system: HSV-1 (KOS strain)
Test: Plaque Reduction Assay (PRA) for anti-viral activity, HSV-1
Assay type: cell-based, herpes simplex virus type 1 (KOS strain)
Conditions: product of reduction of Aloe emodin
Protocol: The extract has a direct virucidal effect on HSV under the standardly accepted assay conditions employed. This effect is demonstrable by mixing the test extract directly with HSV and incubating the mixture for 15 minutes at 37° C., then diluting the mixture and assaying for the amount of viable HSV capable of producing plaques in an in vitro cell culture system. A plaque is defined as a visible, localized destruction of cells in culture produced by a single infectious virus particle or plaque forming unit and is the most sensitive assay in virology for quantitating viruses. Depending on the type and concentration of the test extract used, complete inactivation of HSV plaque forming units can be achieved in 15 minutes or less.
Material for testing was obtained from Aloe plants using either whole leaf homogenates, sap or gel. Other materials for testing included dried leaves of Aloe vera and Senna, dried bark of Frangula and Cascara, dried rhizomes of Rhubarb and a commercial preparation of Aloin. All samples were tested for anti-viral activity by a Plaque Reduction Assay (PRA) using monolayer cultures of Vero (African Green Monkey Kidney) cells grown in MEM+5% calf serum. […] After adsorption, the inoculum was removed, a methyl cellulose/MEM overlay medium was added and after three days incubation the number of plaques per dish counted and averaged. […]

O=C1c2ccccc2Cc2ccccc21 [anthrone]
anti-viral activity (in words): loss of anti-viral activity

From US4670265A, “Aloe emodin and other anthraquinones and anthraquinone-like compounds from plants virucidal against herpes simplex viruses” (priority 1984, dated 1987)
